Results reported in US9221754B2, “Crystalline forms of zofenopril calcium” (Generics [UK] Limited, priority 2008, dated 2015).
Counter-ions that a name gives are not always drawn.

Tests used:
Type in all cases: physicochemical
[1] = Polymorphic purity under dosage form preparation conditions (micronization or wet granulation)
[2] = Mechanical stress during particle size reduction (milling using a multimill); conditions: calcium salt
[3] = Slurry in water (10% w/v) exposed to 50-55° C. for six hours; conditions: calcium salt
[4] = Pellet compression with an Infrared spectrophotometer press machine; conditions: pressure exerted ~10 Tons, calcium salt
[5] = Hygroscopicity of the crystalline forms

| SMILES | change in polymorphic purity during dosage form preparation [1] | polymorphic stability to mechanical stress (milling), by XRPD, DSC and TGA [2] | polymorphic stability of the water slurry, by XRPD, DSC and TGA [3] | polymorphic stability to compression, by XRPD, DSC and TGA [4] | hygroscopicity [5] |
| --- | --- | --- | --- | --- | --- |
| C[C@H](CSC(=O)c1ccccc1)C(=O)N1C[C@@H](Sc2ccccc2)C[C@H]1C(=O)O [form C, (4S)-1-[(2S)-3-(benzoylthio)-2-methylpropionyl]-4-(phenylthio)-L-proline calcium salt] | very slight changes in polymorphic purity |  |  |  |  |
| C[C@H](CSC(=O)c1ccccc1)C(=O)N1C[C@@H](Sc2ccccc2)C[C@H]1C(=O)O [Polymorph E, (4S)-1-[(2S)-3-(benzoylthio)-2-methylpropionyl]-4-(phenylthio)-L-proline calcium salt] |  | retained its polymorphic composition | no change | identical to that before compression | non-hygroscopic |
| C[C@H](CSC(=O)c1ccccc1)C(=O)N1C[C@@H](Sc2ccccc2)C[C@H]1C(=O)O [form F, (4S)-1-[(2S)-3-(benzoylthio)-2-methylpropionyl]-4-(phenylthio)-L-proline calcium salt] |  |  |  |  | non-hygroscopic |
